From patent US20130041022A1, “Glyceollins Suppress Androgen-Responsive Prostate Cancer” (UNITED STATES DEPARTMENT OF AGRICULTURE, priority 2008, published 2013) come the findings set out here.

Format in all cases: cell-based, human
One assay deals with CDKN1B mRNA. Briefly: RT-PCR CDKN1B mRNA in LNCaP cells. The note with it: 48 hours treatment, 0-25 μM. On the procedure: LNCaP cells cultured in 10% FBS were treated with 0, 2.5, 12.5, or 25 μM glyceollins for 48 h, total RNA isolated and mRNA levels of CDKN1A determined as described below. Results are expressed as mean+/−SD (n=3).
(§1) Determination of the effects of glyceollins on gene expression in LNCaP cells using RT-PCR. To examine the effects of glyceollins on cyclin inhibitor CDKN1A and B mRNA expression, LNCaP cells were plated in 6-well plates (0.25×10^6 cells/well) in Media A. After twenty-four hours the medium was removed and replaced with fresh medium containing vehicle, 1, 5, or 25 μM glyceollins or genistein. For experiments examining the effects of glyceollins on steroid hormone, LNCaP cells were plated in 6-well plates (0.25×10^6 cells/well) in Media A and switched to Media B containing 10% CDS 24 h after plating to minimize the effect of serum hormones. Twenty-four hours later, the medium was replaced with fresh medium containing 1 nM DHT or 17β-estradiol with or without 0-25 μM glyceollin. For all experiments fresh medium containing the test compounds was changed daily and cells were harvested for total RNA isolation using the Trizol method (Invitrogen) after 48 h. Taqman real-time PCR was used to quantify expression of the mRNA. […]

The next assay concerns LNCaP cells. Briefly: Cell cycle analysis using flow cytometry (PI), LNCaP. The settings on record: 72 hours; glyceollins 0-25 μM, genistein 25 μM. On the procedure: LNCaP cells (3×10^6 cell) were plated in T-175 flask and treated with 0, 0.25, 2.5, 12.5, or 25 μM glyceollins or with and without genistein (25 μM) for 72 hr, cell cycle analysis performed as described below. Results are expressed as % of total cells (n=3).
(§2) Cell cycle analysis using flow cytometry. LNCaP or PC3 cells (3×10^6 cells) were seeded into T-175 flask in Medium A. Twenty-four hours later the medium was changed to that containing vehicle or test compounds. […] The cellular DNA was then analyzed by flow cytometry. DNA content of the cells was determined through flow cytometry using a FACScalibur cytometer (Becton Dickinson, San Jose, Calif.). Flow cytometric data files were collected and analyzed using the CELLQuest program (Becton Dickinson). […] Cell cycle distribution percentages of stained nuclei were calculated using Modfit LT software (Version 3.0, Verity Software House, Inc., Topsham, Me.). […]
On the technique in general: Flow cytometry measures light scatter and fluorescence of single cells or particles in a stream.

The subject of the next assay is PC-3 cells. Briefly: Cell cycle analysis using flow cytometry (PI), PC-3. The settings on record: 25 μM, 72 hours. As to the method:
PC-3 cells (3×10^6 cells) were plated in T-175 flask and treated with or without 25 μM of glyceollins or genistein for 72 hr, cell cycle analysis performed as described below. Results are expressed as % of total cells (n=3).
as §2

The test system of the next assay is CDKN1A mRNA. Briefly: RT-PCR CDKN1A mRNA in LNCaP cells. The settings on record: 48 hours treatment, 10% FBS. As to the method:
LNCaP cells cultured in 10% FBS were treated with 0, 2.5, 12.5, or 25 μM glyceollins for 48 h, total RNA isolated and mRNA levels of CDKN1A determined as described below. Results are expressed as mean +/−SD (n=3).
LNCaP cells cultured in 10% FBS were treated with 0, 1, 5, 12.5 or 25 μM genistein for 48 h, total RNA isolated and mRNA levels of CDKN1A determined as described below. Results are expressed as mean+/−SD (n=3).
as §1, with “For all experiments fresh medium containing the test compounds was changed daily and cells were harvested for total RNA isolation using the Trizol method (Invitrogen) after 48 h.” left out

Regarding `O=c1c(-c2ccc(O)cc2)coc2cc(O)cc(O)c12` [genistein], the “effect on CDKN1B mRNA levels in LNCaP cells” value in the assay on CDKN1B mRNA was “no changes”. Moreover, in the assay on LNCaP cells, the “effect on cell cycle progression in LNCaP cells” value is on record as “G1/G0 arrest”. Moreover, in the assay on PC-3 cells, the “G2/M blockage in PC-3 cells” value was “lead to G2/M blockage”. In the assay on CDKN1A mRNA, the “concentration at which significant change/induction of CDKN1A mRNA is observed” value stood at 25 µM.
